Drawing on PubChem BioAssay (NCI), this text covers TGI and GI50 for 31 compounds.

Holding throughout (experiment): NCI tumour cell line growth inhibition, 48 h
The subject of test [1] is UACC-257 melanoma.
The subject of test [2] is HCC-2998 colon.
Test [3] deals with HOP-92 NSCLC.
The subject of test [4] is NCI-H460 lung.
Test [5] deals with COLO 205 colon.
Test [6] concerns SK-MEL-5 melanoma.
Test [7] deals with OVCAR-8 ovarian.
The subject of test [8] is HL-60(TB) leukemia.
Test [9] has as its system HS 578T breast.
The test system of test [10] is PC-3 prostate.

Where “and” joins values, the source holds several entries; their conditions need not be identical. Equal values may be shown once.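 Test compounds were applied to cells in 96-well plates for 48 hours at 5 doses. At the GI50, growth is halved. Definition used: TGI = concentration required for complete inhibition of growth.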

On to `COC(=O)/C=C1/CCC2[C@@H](C(=O)CC3[C@]2(C)CCC[C@@]3(C)C(=O)OC)C1C` (some centres undefined), for which the TGI in [1] is 24.7 µM; in test [2], 39.8 µM; in test [3], 18.1 µM; in test [4] it was 51.7 µM; in test [5], 18.1 µM; in test [6], 20.8 µM. In addition, the TGI in test [7] turned out to be 34.9 µM; in test [8], 7.81 µM.
As to `Cc1cc(O)cc2oc(=O)c3c(O)cc(O)cc3c12`, the TGI in test [1] is over 100 µM; in test [2], 40.8 µM; in [3], 76.3 µM; in test [4] it was 30.8 µM; in test [5], 66.7 µM; in test [6], over 100 µM. In addition, the TGI is over 100 µM in test [7] and 46.5 µM in test [8].
In the case of `CCOC(C)C(/C=N/NC(N)=S)=NNC(N)=S` (centres undefined), the TGI in [1], in test [2], in [3], in test [4], in test [5] and in test [6] was over 100 µM each time. The TGI in test [7] and in [8] was over 100 µM each time.
Consider `[O-]c1c2c(nn1-c1ccccc1)c1ccccc1c[n+]2Cc1ccccc1`, for which the TGI in [1], in test [2], in test [3], in test [4], in test [5] and in [6] was over 100 µM each time. In addition, the TGI in [7] and in test [8] was over 100 µM throughout.
As to `Cc1ccc(NC(=O)C(=O)C2C(=O)N(c3ccccc3)N=C2N)cc1C` (centres undefined), the TGI in [1], in test [2], in test [3], in test [5], in test [6] and in test [7] was over 100 µM throughout. This compound also returned a TGI in [8] of over 100 µM.
Regarding `CN(C)CCNC(=O)c1cc2ccccc2c2nc3ccccc3nc12`, the TGI is 3.09 µM in test [1]; 3.92 µM in test [2]; over 100 µM in test [5]; 5.5 µM in test [6]; over 20.4 µM in test [7].
Take `CC1=NN(c2ccccc2)C(=O)C1=C1SCCS1`: the TGI is over 100 µM in test [1]; over 100 µM in test [2]; over 85.8 µM in [3]; over 100 µM in test [4]; over 56.8 µM in [5]; over 100 µM in [6]. Also, the TGI was over 100 µM in test [7] and over 58.9 µM in test [8].
For `CC(=O)[CH-]C(=O)c1ccccc1.CC(=O)[CH-]C(=O)c1ccccc1.CC[O-].CC[O-].[Zr+4]`, the GI50 in [1], in [2], in [4], in [5], in test [6] and in [7] was over 100 µM each time. In addition, the GI50 in test [8] was over 100 µM. Moreover, the TGI in test [1], in [2], in test [4], in test [5], in [6] and in [7] was over 100 µM in each case. In [8], the TGI is over 100 µM.
Consider `O=S(=O)(O)O.[NH-]C1CCCCC1[NH-].[Pt+2]` (centres undefined), for which the GI50 is over 100 µM in test [1]; over 100 µM in test [2]; 56.7 µM in test [3]; 41 µM in test [4]; over 100 µM in [5]; 42.3 µM in [6]. The GI50 is 80.1 µM in test [7] and 19.3 µM in test [8]. Besides, the TGI in test [1], in test [2], in test [3], in test [4], in test [5] and in [6] was over 100 µM in each case. Moreover, the TGI in test [7] and in [8] was over 100 µM each time.
For the compound `COc1cc(C2=NN(C)C(c3ccc([N+](=O)[O-])o3)C2)cc(OC)c1OC` (centres undefined), the TGI in test [1], in [2], in [3], in test [4], in test [5] and in test [6] was over 100 µM throughout. The TGI in test [7] and in [8] was over 100 µM throughout.
Take `CC1(C)COC(C23C4C5C2C2C3C4C52I)=N1` (centres undefined): the TGI in [1], in test [2], in test [3], in test [4], in test [5] and in test [6] was over 100 µM each time. Besides, in test [7], the TGI was over 100 µM.
With `COC(=O)C1=C(O)c2cc(OC)c(OC)c(OC)c2[C@H](c2cc(OC)c(OC)c(OC)c2)C1C(=O)OC` (some centres undefined), the TGI is over 100 µM in test [1]; 83.9 µM in test [2]; 69.3 µM in [3]; over 100 µM in test [4]; 37.9 µM in test [5]; over 100 µM in test [6]. Further, the TGI was over 100 µM in test [7] and 61.6 µM in [8].
Turning to `C/C(CC(=O)Nc1ccc(Cl)c(Cl)c1)=N/NC(=O)C[n+]1ccccc1`, the TGI in test [1], in test [2], in test [3], in test [4], in test [5] and in test [6] was over 100 µM each time. Besides, the TGI in [7] and in test [8] was over 100 µM throughout.
For the compound `Cc1ccc(NC(=O)CCC(CC(=O)C(C)(C)C)=NNC(=O)C(=O)NN)cc1C`, the TGI in test [1], in test [2], in test [4], in test [5], in [6] and in test [7] was over 100 µM each time. In test [8], this compound came in with a TGI of over 100 µM.
As to `CCOC(=O)C12CCCC1(O)N(NC(=O)c1ccccc1)C(C)=C2C(=O)OC` (centres undefined), the TGI in test [1], in test [2], in test [3], in test [4], in test [5] and in test [7] was over 100 µM throughout. This compound also had a TGI in test [8] of over 100 µM.
As to `O=C(O)C(CP(=O)(O)O)=C(Cl)Cl`, the TGI in test [1], in test [2], in [3], in [4], in test [5] and in test [7] was over 100 µM in each case. The compound further gave a TGI in test [8] of over 100 µM.
As for `CCC[CH2][Sn]1([CH2]CCC)[O]C(=O)c2cc(I)cc(I)c2[O]1`, the GI50 is 1.24 µM in test [1]; 1.37 µM in [2]; 1.4 µM in test [3]; 1.45 µM in test [4]; 0.702 µM in test [5]; 1.54 µM in test [6]. Besides, the results for the GI50 in [7] and in test [8] were 1.41 µM and 0.4 µM, respectively. In addition, the TGI in test [1] was determined as 2.55 µM; in test [2] it was 2.7 µM; in test [3], 2.93 µM; in test [4], 2.76 µM; in [5] it was 1.97 µM; in test [6], 2.88 µM. The TGI in test [7] was determined as 3.01 µM; in test [8], 2.22 µM.
`CC1CC2(C)ON=C(c3ccccc3)N2c2ccccc2S1` (centres undefined): the GI50 in test [9] is 46.2 µM; in test [1], 36.8 µM; in test [4], 41.3 µM; in [5] it was 22.6 µM; in [6], 16.9 µM; in test [7] it was 37.3 µM. Moreover, in test [8], the GI50 was 23.5 µM. Further, the TGI stood at 56.2 µM in [5] and 32.1 µM in test [6].
Take `Cc1c(Cl)ccc2c1NC(=O)C2(O)C(C(=O)c1ccccc1)c1ccccc1` (centres undefined): the TGI in test [1] is 89 µM; in test [2], over 100 µM; in test [4], over 100 µM; in test [5], over 100 µM; in test [6], 60 µM; in test [7], over 100 µM. The compound also registered a TGI in test [8] of 39.5 µM.
As to `CS(=O)(=O)NNS(=O)(=O)c1cccc([N+](=O)[O-])c1`, the TGI in test [1], in test [2], in test [4], in test [5], in test [6] and in [7] was over 100 µM in each case. In addition, the TGI in [8] was over 100 µM.
Take `COc1ccc(C(=O)C(c2ccc(OC)cc2)C2(O)C(=O)Nc3ccccc32)cc1` (centres undefined): the TGI in test [1], in [3] and in [8] was over 100 µM in each case.
Turning to `O=S1c2ccccc2N=C(c2ccc3ccccc3c2)CC1C1=CC=CCC1` (centres undefined), the TGI in test [1] stood at 34.8 µM; in [2], 26.2 µM; in [4] it was 54.5 µM; in test [5], 37.9 µM; in [6] it was 30.4 µM; in test [7], 49.4 µM. Also, in test [8], the TGI was 36.8 µM.
Consider `COc1cc(/C=C2\[C@H]3c4c(c(OC)c(C)c(OC)c4OC)C[C@@H](C(=O)N2Cc2ccccc2)N3C(=O)OCC(C)C)c(OC)c(C)c1OC`, for which the TGI in [1], in test [2], in test [3], in [4], in test [5] and in test [6] was over 100 µM throughout. Besides, the TGI in test [7] and in [8] was over 100 µM throughout.
For `COc1ccc2c(=O)c(C)c(-c3ccccc3)oc2c1CN(C)C`, the TGI in test [1], in [2], in test [3], in [4], in test [5] and in test [6] was over 100 µM throughout. Besides, the TGI in [7] and in test [8] was over 100 µM each time. The GI50 in test [8] is > 100 µM and 34.6 µM.
`C/C(=C\C(C)COCc1ccccc1)[C@H](COCc1ccccc1)OCc1ccccc1` (some centres undefined): the TGI in test [2], in test [3], in test [4], in test [5], in test [6] and in test [7] was over 100 µM each time.
With `CCOC12OC3=C(CC1CC1=C(CCC1=O)O2)C(=O)CC3` (centres undefined), the TGI in [1], in [3], in test [4], in test [5], in test [6] and in [7] was over 100 µM in each case. The compound further returned a TGI in test [8] of over 100 µM.
With `CCCN(CCCCC(NC(C)=O)C(=O)NCc1ccccc1)C(=O)N(C)N=O` (centres undefined), the TGI in test [1], in [2], in [3], in [4], in test [5] and in test [6] was over 100 µM throughout. The compound also registered a TGI in [7] of over 100 µM.
Take `CCOC(=O)/C(O)=C(/c1n[nH]c(=O)c2ccccc12)[N+](=O)[O-]`: the TGI in [1], in test [2], in test [3], in test [4], in test [5] and in test [6] was over 100 µM each time. Besides, the TGI in test [7] and in test [8] was over 100 µM in each case.
For `O=c1/c(=C/c2cccc([N+](=O)[O-])c2)sc2nc3ccccc3n12`, the TGI in test [1], in test [2], in [4], in test [7] and in test [8] was over 100 µM each time.
`Cc1nc(Cl)nc(Cl)c1C`: the TGI in test [9], in [1], in test [2], in [4], in [10] and in test [6] was over 100 µM throughout. Besides, the TGI in test [7] and in test [8] was over 100 µM in each case.
Turning to `COc1cc(/C=C2/C(=O)N(C(=O)OC(C)C)C(Cc3cc(OC)c(OC)c(C)c3OC)C(=O)N2Cc2ccccc2)c(OC)c(C)c1OC` (centres undefined), the TGI in test [1], in test [2], in test [3], in test [4], in test [5] and in test [6] was over 100 µM throughout. Further, the TGI in test [7] and in test [8] was over 100 µM each time.
